Our source for the Activity values is ChEMBL document CHEMBL2074180, “Human P-glycoprotein transports cyclosporin A and FK506” (J Biol Chem, 1993).

For this data set, the target named is ATP-dependent translocase ABCB1 (Homo sapiens, UniProt P08183). Description: TP_TRANSPORTER: transepithelial transport of tacrolimus (basal to apical) (Tacrolimus: 6.2 uM) in MDR1-expressing LLC-PK1 cells. Type of data set: functional, cell-based. The following applies: pig, llc-pk1, 6.2 µM.
Sequence of ATP-dependent translocase ABCB1 (P08183 whole entry): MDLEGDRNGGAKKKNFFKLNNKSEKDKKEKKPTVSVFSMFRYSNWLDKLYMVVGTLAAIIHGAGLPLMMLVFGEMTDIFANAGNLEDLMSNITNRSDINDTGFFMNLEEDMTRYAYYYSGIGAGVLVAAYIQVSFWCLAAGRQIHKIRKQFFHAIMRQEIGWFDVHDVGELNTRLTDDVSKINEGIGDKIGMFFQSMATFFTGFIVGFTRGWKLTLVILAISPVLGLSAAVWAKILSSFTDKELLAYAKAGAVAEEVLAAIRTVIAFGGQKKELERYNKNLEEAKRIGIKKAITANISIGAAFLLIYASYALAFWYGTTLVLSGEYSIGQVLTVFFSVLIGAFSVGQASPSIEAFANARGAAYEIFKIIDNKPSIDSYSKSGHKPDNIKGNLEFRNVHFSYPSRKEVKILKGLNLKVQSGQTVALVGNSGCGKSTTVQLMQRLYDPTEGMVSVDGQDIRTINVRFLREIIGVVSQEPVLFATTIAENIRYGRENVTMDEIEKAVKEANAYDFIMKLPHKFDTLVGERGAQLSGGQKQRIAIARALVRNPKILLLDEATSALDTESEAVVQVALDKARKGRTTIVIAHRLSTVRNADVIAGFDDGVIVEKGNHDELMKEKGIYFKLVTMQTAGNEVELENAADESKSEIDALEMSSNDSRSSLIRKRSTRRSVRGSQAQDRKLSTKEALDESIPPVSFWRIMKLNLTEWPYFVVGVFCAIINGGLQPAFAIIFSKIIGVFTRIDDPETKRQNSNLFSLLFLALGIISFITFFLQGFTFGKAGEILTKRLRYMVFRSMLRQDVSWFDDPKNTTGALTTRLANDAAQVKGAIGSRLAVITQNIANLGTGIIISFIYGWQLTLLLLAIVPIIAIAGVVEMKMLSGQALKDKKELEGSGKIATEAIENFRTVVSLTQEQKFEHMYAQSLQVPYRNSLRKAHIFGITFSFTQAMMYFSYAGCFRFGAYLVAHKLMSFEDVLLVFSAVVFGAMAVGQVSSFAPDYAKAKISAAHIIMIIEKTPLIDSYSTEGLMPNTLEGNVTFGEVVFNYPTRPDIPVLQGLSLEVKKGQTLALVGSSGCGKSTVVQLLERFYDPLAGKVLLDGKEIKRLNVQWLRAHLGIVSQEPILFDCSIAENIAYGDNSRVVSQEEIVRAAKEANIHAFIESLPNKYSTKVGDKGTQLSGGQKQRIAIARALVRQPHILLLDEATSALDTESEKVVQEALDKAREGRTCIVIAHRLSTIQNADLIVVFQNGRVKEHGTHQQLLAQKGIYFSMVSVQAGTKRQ

As for `C=CC[C@@H]1/C=C(\C)C[C@H](C)C[C@H](OC)[C@H]2O[C@@](O)(C(=O)C(=O)N3CCCC[C@H]3C(=O)O[C@H](/C(C)=C/[C@@H]3CC[C@@H](O)[C@H](OC)C3)[C@H](C)[C@@H](O)CC1=O)[C@H](C)C[C@@H]2OC` [TACROLIMUS ANHYDROUS], the Activity entry was “inhibitor [+]”.
